# Results as given in US5721234A, “Glutamate receptor antagonists: fused cycloalkylouinoxalinediones” (Warner-Lambert Company, priority 1995, dated 1998).
# Counter-ions that a name gives are not always drawn.
# How the values were obtained:
# [1] = biological target: kainate site (non-NMDA receptor); test: Kainate site (non-NMDA receptor) binding affinity (London and Coyle)
# AMPA receptors = test: AMPA receptor binding affinity (Honore et al.)
# [2] = Table 2, cyclopentyl-fused analogs
# [3] = Table 1, cyclohexyl-fused analogs
Compound,"IC50 [1, 2] [µM]",IC50 (AMPA receptors; [2]) [µM],"IC50 [1, 3] [µM]",IC50 (AMPA receptors; [3]) [µM]
"O=c1[nH]c2cc([N+](=O)[O-])c3c(c2[nH]c1=O)CC(N1CCCCC1)C3 (stereo not drawn) [Example 108, 6-Nitro-8-piperidin-1-yl-4,7,8,9-tetrahydro-1H-cyclopenta[f]quinoxaline-2,3-dione]",1.6,3.4,,
"O=c1[nH]c2cc([N+](=O)[O-])c3c(c2[nH]c1=O)CC(N1CCCC1)C3 (stereo not drawn) [Example 104, 6-Nitro-8-pyrrolidin-1-yl-4,7,8,9-tetrahydro-1H-cyclopenta[f]quinoxaline-2,3-dione]",2.2,1.5,,
"CN(C(=O)c1ccccc1)C1CCc2c([N+](=O)[O-])cc3[nH]c(=O)c(=O)[nH]c3c2C1 (stereo not drawn) [Example 53, N-Methyl-N-(6-nitro-2,3-dioxo-1,2,3,4,7,8,9,10-octahydro-benzo[f]quinoxalin-9-yl)-benzamide]",,,1.6,1.1
"CN(C(=O)c1ccccc1)C1Cc2c([N+](=O)[O-])cc3[nH]c(=O)c(=O)[nH]c3c2C1 (stereo not drawn) [Example 68, N-Methyl-N-(6-nitro-2,3-dioxo-2,3,4,7,8,9-hexahydro-1H-cyclopenta[f]quinoxalin-8-yl)-benzamide]",1.9,7.4,,
"CC(=O)NC1Cc2ccc3[nH]c(=O)c(=O)[nH]c3c2C1 (stereo not drawn) [Example 30, N-(2,3-dioxo-2,3,4,7,8,9-hexahydro-1H-cyclopenta[f]quinoxalin-8-yl)-acetamide]",87,25,,
"CC(=O)NC1Cc2cc(Br)c3[nH]c(=O)c(=O)[nH]c3c2C1 (stereo not drawn) [Example 28, N-(5-bromo-2,3-dioxo-2,3,4,7,8,9-hexahydro-1H-cyclopenta[f]quinoxalin-8-yl)-acetamide]",> 100,> 100,,
"O=c1[nH]c2cc(Br)c3c(c2[nH]c1=O)CC(OCc1ccccc1)CC3 (stereo not drawn) [Example 8, 9-benzyloxy-6-bromo-1,4,7,8,9,10-hexahydro-benzo[f]quinoxaline-2,3-dione]",,,> 100,14
"CC(=O)NC1Cc2c([N+](=O)[O-])c(Br)c3[nH]c(=O)c(=O)[nH]c3c2C1 (stereo not drawn) [Example 29, N-(5-bromo-6-nitro-2,3-dioxo-2,3,4,7,8,9-hexahydro-1H-cyclopenta[f]quinoxalin-8-yl)acetamide]",,5.1,,
"CNC1Cc2c([N+](=O)[O-])cc3[nH]c(=O)c(=O)[nH]c3c2C1 (stereo not drawn) [Example 100, 8-Methylamino-6-nitro-4,7,8,9-tetrahydro-1H-cyclopenta[f]quinoxaline-2,3-dione methane sulfonate salt]",2.2,1.2,,
"CN(C(=O)c1cccs1)C1Cc2c([N+](=O)[O-])cc3[nH]c(=O)c(=O)[nH]c3c2C1 (stereo not drawn) [Example 67, Thiophene-2-carboxylic acid methyl-(6-nitro-2,3-dioxo-2,3,4,7,8,9-hexahydro-1H-cyclopenta[f]quinoxalin-8-yl)-amide]",1.6,3.6,,
"CC(=O)N(C)C1Cc2c([N+](=O)[O-])cc3[nH]c(=O)c(=O)[nH]c3c2C1 (stereo not drawn) [Example 105, N-Methyl-N-(6-nitro-2,3,-dioxo-2,3,4,7,8,9-hexahydro-1H-cyclopenta[f]quinoxaline-8-yl)acetamide]",2.2,2.2,,
"NC1Cc2c([N+](=O)[O-])cc3[nH]c(=O)c(=O)[nH]c3c2C1 (stereo not drawn) [Example 38, 8-amino-6-nitro-4,7,8,9-tetrahydro-1H-cyclopenta[f]quinoxaline-2,3-dione hydrochloride]",2.1,2.6,,
"O=C(NC1Cc2c([N+](=O)[O-])cc3[nH]c(=O)c(=O)[nH]c3c2C1)c1cc2ccccc2s1 (stereo not drawn) [Example 65, Benzo[b]thiophene-2-carboxylic acid (6-nitro-2,3,-dioxo-2,3,4,7,8,9-hexahydro-1H-cyclopenta[f]quinoxalin-8-yl)-amide]",8.1,1.3,,
"O=c1[nH]c2cc([N+](=O)[O-])c3c(c2[nH]c1=O)CC(N1CCCC1)CC3 (stereo not drawn) [Example 86, 6-Nitro-9-pyrrolidin-1-yl-1,4,7,8,9,10-hexahydro-benzo[f]quinoxaline-2,3-dione]",,,3.8,2.2
